In patent publication US8211935B2, “Heterocyclic derivatives for modulation of calcium channels” (Vertex Pharmaceuticals Incorporated, priority 2004, dated 2012):

These compounds were tested against T1, CaV2.2 (Homo sapiens, UniProt Q00975) (assay: VIPR optical membrane potential assay with electrical stimulation). Settings: Table 3, biological assay data; read-out: IC50.
T1 construct: expressed in transfected cells; host or cells: HEK293
T1 sequence (Q00975 whole entry): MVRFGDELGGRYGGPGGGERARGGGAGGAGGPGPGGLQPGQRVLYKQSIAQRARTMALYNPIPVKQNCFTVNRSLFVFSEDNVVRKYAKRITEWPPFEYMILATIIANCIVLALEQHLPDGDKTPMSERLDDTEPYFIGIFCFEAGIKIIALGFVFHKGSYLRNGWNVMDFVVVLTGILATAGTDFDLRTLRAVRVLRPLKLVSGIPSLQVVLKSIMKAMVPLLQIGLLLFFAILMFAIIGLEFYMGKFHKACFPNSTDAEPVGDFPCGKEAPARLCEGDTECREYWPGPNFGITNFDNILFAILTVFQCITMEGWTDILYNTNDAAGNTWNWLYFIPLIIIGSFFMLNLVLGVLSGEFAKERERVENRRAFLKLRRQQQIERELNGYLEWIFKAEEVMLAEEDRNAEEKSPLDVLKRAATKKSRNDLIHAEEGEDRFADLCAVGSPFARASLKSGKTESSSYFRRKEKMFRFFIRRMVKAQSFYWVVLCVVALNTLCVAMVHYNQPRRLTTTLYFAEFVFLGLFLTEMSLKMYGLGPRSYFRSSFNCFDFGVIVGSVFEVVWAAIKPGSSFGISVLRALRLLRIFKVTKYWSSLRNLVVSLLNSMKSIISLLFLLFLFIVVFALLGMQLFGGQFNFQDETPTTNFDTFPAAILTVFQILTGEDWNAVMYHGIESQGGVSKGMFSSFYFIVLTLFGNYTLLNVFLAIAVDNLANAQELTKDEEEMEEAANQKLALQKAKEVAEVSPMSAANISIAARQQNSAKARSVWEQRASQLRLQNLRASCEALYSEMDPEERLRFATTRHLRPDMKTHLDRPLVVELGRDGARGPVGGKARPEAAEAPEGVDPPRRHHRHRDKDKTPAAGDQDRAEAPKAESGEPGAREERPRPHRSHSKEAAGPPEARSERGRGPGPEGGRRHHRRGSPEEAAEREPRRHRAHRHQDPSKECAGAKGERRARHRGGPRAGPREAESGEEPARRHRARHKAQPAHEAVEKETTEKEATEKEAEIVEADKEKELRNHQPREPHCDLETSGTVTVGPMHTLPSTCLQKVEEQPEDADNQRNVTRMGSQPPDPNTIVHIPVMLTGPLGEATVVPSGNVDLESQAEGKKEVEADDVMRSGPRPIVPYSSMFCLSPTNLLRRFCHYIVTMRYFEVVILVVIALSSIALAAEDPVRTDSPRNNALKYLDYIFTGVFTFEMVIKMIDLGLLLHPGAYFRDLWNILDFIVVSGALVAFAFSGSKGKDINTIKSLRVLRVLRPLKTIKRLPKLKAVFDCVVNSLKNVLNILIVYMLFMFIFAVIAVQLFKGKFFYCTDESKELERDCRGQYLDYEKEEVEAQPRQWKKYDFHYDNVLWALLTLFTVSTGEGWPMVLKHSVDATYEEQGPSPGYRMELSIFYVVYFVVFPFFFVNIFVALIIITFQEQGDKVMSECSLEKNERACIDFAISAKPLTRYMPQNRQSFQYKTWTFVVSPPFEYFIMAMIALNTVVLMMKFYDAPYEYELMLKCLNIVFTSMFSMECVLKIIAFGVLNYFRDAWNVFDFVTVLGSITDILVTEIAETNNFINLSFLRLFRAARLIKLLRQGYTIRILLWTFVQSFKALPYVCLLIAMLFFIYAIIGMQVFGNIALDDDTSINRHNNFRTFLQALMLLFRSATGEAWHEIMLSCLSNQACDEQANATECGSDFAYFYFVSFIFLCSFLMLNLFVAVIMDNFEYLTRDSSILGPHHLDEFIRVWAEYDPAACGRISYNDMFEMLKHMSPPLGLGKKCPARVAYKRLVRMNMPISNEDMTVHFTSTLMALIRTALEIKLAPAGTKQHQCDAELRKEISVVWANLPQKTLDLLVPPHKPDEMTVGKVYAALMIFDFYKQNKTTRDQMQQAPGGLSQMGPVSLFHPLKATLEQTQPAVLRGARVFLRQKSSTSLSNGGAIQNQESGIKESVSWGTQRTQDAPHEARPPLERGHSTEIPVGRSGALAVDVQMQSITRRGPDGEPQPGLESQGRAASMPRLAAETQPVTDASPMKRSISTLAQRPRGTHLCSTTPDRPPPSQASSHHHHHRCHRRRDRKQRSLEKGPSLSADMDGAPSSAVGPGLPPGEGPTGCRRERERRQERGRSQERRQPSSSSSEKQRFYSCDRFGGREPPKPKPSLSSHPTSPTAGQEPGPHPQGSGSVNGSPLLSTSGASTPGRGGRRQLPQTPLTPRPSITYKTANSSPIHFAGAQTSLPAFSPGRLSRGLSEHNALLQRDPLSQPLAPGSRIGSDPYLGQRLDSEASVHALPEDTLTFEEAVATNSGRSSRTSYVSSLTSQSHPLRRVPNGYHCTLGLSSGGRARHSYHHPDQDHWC
T1 sequence (P54284 whole entry partner): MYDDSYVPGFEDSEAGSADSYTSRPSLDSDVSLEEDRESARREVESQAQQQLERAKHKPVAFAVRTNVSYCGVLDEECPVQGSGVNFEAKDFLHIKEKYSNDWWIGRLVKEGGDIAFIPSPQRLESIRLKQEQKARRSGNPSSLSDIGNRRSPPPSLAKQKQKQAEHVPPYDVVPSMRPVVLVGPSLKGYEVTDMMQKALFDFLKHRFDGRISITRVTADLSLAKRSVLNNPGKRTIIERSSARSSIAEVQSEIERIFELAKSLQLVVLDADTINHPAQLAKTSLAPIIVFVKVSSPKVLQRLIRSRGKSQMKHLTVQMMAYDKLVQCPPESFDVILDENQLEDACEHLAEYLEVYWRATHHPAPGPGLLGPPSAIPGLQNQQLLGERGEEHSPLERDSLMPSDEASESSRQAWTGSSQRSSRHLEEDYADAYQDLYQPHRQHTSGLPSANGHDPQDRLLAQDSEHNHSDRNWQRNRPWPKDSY
T1 sequence (P54289 25-946 partner limits assumed): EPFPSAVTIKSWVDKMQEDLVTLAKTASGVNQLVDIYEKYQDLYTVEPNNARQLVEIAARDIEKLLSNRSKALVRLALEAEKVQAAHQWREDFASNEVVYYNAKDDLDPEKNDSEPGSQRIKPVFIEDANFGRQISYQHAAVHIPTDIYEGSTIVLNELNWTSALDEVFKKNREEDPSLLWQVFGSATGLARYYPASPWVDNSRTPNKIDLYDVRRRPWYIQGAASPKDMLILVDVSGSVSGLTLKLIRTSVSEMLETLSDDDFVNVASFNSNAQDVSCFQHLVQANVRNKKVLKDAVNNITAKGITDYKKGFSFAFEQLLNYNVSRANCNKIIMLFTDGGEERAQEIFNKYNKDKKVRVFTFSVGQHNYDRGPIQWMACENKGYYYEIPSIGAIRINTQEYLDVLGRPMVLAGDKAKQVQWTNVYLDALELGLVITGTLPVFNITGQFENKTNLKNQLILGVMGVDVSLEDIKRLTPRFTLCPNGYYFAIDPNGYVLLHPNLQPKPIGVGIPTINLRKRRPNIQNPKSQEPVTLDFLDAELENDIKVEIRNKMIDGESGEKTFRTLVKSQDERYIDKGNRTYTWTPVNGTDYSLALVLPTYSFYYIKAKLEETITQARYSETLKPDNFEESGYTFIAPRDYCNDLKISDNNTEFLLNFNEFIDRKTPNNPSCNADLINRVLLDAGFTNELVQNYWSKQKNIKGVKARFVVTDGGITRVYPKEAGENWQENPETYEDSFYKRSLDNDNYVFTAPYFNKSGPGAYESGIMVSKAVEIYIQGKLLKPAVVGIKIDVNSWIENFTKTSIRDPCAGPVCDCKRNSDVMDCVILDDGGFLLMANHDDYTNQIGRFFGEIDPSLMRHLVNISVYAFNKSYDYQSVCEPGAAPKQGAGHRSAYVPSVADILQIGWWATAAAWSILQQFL
T1 sequence (P54289 947-1103 partner limits assumed): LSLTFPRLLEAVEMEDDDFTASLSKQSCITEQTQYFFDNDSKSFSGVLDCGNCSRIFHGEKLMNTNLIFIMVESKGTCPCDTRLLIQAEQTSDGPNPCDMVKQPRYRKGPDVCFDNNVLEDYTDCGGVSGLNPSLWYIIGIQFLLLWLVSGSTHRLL
Assay type: cell-based
Procedure: Antagonist properties of test compounds were assessed as follows. Cells expressing the CaV of interest were placed into microtiter plates. After an incubation period, the cells were stained with fluorescent dyes sensitive to the transmembrane potential. The test compounds were added to the microtiter plate. The cells were stimulated with electrical means to evoke a CaV dependent membrane potential change from unblocked channels, which was detected and measured with trans-membrane potential-sensitive dyes. Antagonists were detected as a decreased membrane potential response to the stimulus.
VIPR® Optical Membrane Potential Assay Method with Electrical Stimulation
The following is an example of how CaV2.2 inhibition activity is measured using the optical membrane potential method. Other subtypes are performed in an analogous mode in a cell line expressing the CaV of interest.
HEK293 cells stably expressing CaV2.2 are plated into 96-well microtiter plates. After an appropriate incubation period, the cells are stained with the voltage sensitive dyes CC2-DMPE/DiSBAC2(3) as follows.
2×CC2-DMPE=20 μM CC2-DMPE: 10 mM CC2-DMPE is vortexed with an equivalent volume of 10% Pluronic, followed by vortexing in required amount of HBSS containing 10 mM HEPES. Each cell plate will require 5 mL of 2×CC2-DMPE. 50 μL of 2×CC2-DMPE is added to wells containing washed cells, resulting in a 10 μM final staining concentration. The cells are stained for 30 minutes in the dark at RT.
Vortex in required amount of Bath X with beta-cyclodextrin. Each 96 well cell plate will require 5 ml of 2×CC2DMPE. Wash plate with ELx405 with Bath X, leaving a residual volume of 50 μL/well. Add 50 μL of 2×CC2DMPE & DISBAC6(3) to each well. Stain for 30 minutes in the dark at RT.
Allow solution to sit for 10 minutes. Slowly mix in 370 mM BaCl2. This solution can be used to solvate compound plates. Note that compound plates are made at 1.5× drug concentration and not the usual 2×. Wash CC2 stained plate, again, leaving residual volume of 50 pt. Add 100 uL/well of the AY17 solution. Stain for 15 minutes in the dark at RT. Run plate on the optical reader.
The instrument comprises a microtiter plate handler, an optical system for exciting the coumarin dye while simultaneously recording the coumarin and oxonol emissions, a waveform generator, a current- or voltage-controlled amplifier, and a device for inserting electrodes in well. Under integrated computer control, this instrument passes user-programmed electrical stimulus protocols to cells within the wells of the microtiter plate.
Insert or use electrodes into each well to be assayed.
Use the current-controlled amplifier to deliver stimulation wave pulses for 3-5 s. Two seconds of pre-stimulus recording are performed to obtain the un-stimulated intensities. Five seconds of post-stimulation recording are performed to examine the relaxation to the resting state.
Data are analyzed and reported as normalized ratios of background-subtracted emission intensities measured in the 460 nm and 580 nm channels. Background intensities are then subtracted from each assay channel. Background intensities are obtained by measuring the emission intensities during the same time periods from identically treated assay wells in which there are no cells. The response as a function of time is then reported as the ratios obtained using the following formula: […]
The data is further reduced by calculating the initial (Ri) and final (Rf) ratios. These are the average ratio values during part or all of the pre-stimulation period, and during sample points during the stimulation period. The response to the stimulus R=Rf/Ri is then calculated.
Control responses are obtained by performing assays in the presence of a compound with the desired properties (positive control), such as mibefradil, and in the absence of pharmacological agents (negative control). Responses to the negative (N) and positive (P) controls are calculated as above.
An IC50 of under 20 µM was found for O=C(c1cc2cc(S(=O)(=O)N3CCCCCC3)ccc2[nH]1)N1CCCC1 [compound 272] in this work.
An IC50 of 5 to 20 µM was found for Cc1c(C(=O)NCCN2CCOCC2)oc2ccc(S(=O)(=O)N3CCCCCC3)cc12 [compound 114] in this work.
An IC50 of 5 to 20 µM was found for CCOC(=O)N1CCN(C(=O)c2cc3cc(S(=O)(=O)N4CCCCCC4)ccc3[nH]2)CC1 [compound 72] in this work.
An IC50 of under 5 µM was found for CC1CCN(S(=O)(=O)c2ccc3[nH]c(CNC4CC4)cc3c2)CC1 [compound 108] in this work.
An IC50 of under 5 µM was found for CC(C)N(C(=O)c1cc2cc(S(=O)(=O)N3CCCCCC3)ccc2o1)C(C)C [compound 67] in this work.
An IC50 of under 5 µM was found for CC1CC(C)CN(S(=O)(=O)c2ccc3oc(C(=O)NC4CCCCC4)cc3c2)C1 (centres unmarked) [compound 455] in this work.
An IC50 of 5 to 20 µM was found for Cc1c(C(=O)NC(C)C)oc2ccc(S(=O)(=O)N3CCCC(C)C3)cc12 (centres unmarked) [compound 47] in this work.
An IC50 of 5 to 20 µM was found for Cc1c(C(=O)NCC2CCCO2)oc2ccc(S(=O)(=O)N3CCC(C)CC3)cc12 (centres unmarked) [compound 238] in this work.
An IC50 of under 20 µM was found for Cc1c(C(=O)NC2CCCCC2)oc2ccc(S(=O)(=O)N3CCOCC3)cc12 [compound 75] in this work.
An IC50 of under 5 µM was found for CCOC(=O)N1CCN(C(=O)c2cc3cc(S(=O)(=O)N4CCC(C)CC4)ccc3[nH]2)CC1 [compound 84] in this work.
An IC50 of under 20 µM was found for Cc1c(C(=O)NC2CC2)oc2ccc(S(=O)(=O)NCc3ccc(F)cc3)cc12 [compound 182] in this work.
An IC50 of under 20 µM was found for Cc1c(C(=O)N2CCC(C)CC2)oc2ccc(S(=O)(=O)N3CCOCC3)cc12 [compound 163] in this work.
An IC50 of under 20 µM was found for CC1CCN(S(=O)(=O)c2ccc3[nH]cc(C(=O)N4CCN(C)CC4)c3c2)CC1 [compound 338] in this work.
An IC50 of 5 to 20 µM was found for CC1CC(C)CN(S(=O)(=O)c2ccc3oc(C(=O)N4CCN(C)CC4)cc3c2)C1 (centres unmarked) [compound 82] in this work.
An IC50 of 5 to 20 µM was found for Cc1c(C(=O)N2CCC(C)CC2)oc2ccc(S(=O)(=O)N3CCC(C)CC3)cc12 [compound 128] in this work.
An IC50 of under 5 µM was found for CCN(CC)C(=O)c1oc2ccc(S(=O)(=O)N3CC(C)CC(C)C3)cc2c1C (centres unmarked) [compound 423] in this work.
An IC50 of under 5 µM was found for CNC(=O)c1[nH]c2ccc(S(=O)(=O)N3CC(C)CC(C)C3)cc2c1C (centres unmarked) [compound 216] in this work.
An IC50 of 5 to 20 µM was found for CCOC(=O)N1CCN(C(=O)c2[nH]c3ccc(S(=O)(=O)N4CCC(C)CC4)cc3c2C)CC1 [compound 198] in this work.
An IC50 of under 5 µM was found for Cc1c(C(=O)NCCCN2CCOCC2)oc2ccc(S(=O)(=O)N3CC(C)CC(C)C3)cc12 (centres unmarked) [compound 79] in this work.
An IC50 of 5 to 20 µM was found for CC1CCN(S(=O)(=O)c2ccc3[nH]c(C(=O)N4CCCCCC4)cc3c2)CC1 [compound 348] in this work.
An IC50 of 5 to 20 µM was found for CN1CCN(C(=O)c2cc3cc(S(=O)(=O)N4CCCCCC4)ccc3o2)CC1 [compound 165] in this work.
An IC50 of under 20 µM was found for Cc1c(C(=O)NCc2ccccc2)oc2ccc(S(=O)(=O)N3CCC4(CC3)OCCO4)cc12 [compound 118] in this work.
An IC50 of 5 to 20 µM was found for CCOC(=O)N1CCN(C(=O)c2[nH]c3ccc(S(=O)(=O)N4CCCCCC4)cc3c2C)CC1 [compound 235] in this work.
An IC50 of under 20 µM was found for Cc1c(C(=O)NC2CC2)oc2ccc(S(=O)(=O)Nc3cccnc3)cc12 [compound 453] in this work.
An IC50 of 5 to 20 µM was found for Cc1c(C(=O)NCC2CCOCC2)oc2ccc(S(=O)(=O)N3CCCCCC3)cc12 [compound 38] in this work.
An IC50 of under 5 µM was found for Cc1c(C(=O)N2CCCCC2C)oc2ccc(S(=O)(=O)N3CC(C)CC(C)C3)cc12 (centres unmarked) [compound 153] in this work.
An IC50 of 5 to 20 µM was found for Cc1c(C(=O)NCCc2ccccc2)oc2ccc(S(=O)(=O)N3CCC4(CC3)OCCO4)cc12 [compound 136] in this work.
An IC50 of under 5 µM was found for CCCN(CC1CC1)C(=O)c1cc2cc(S(=O)(=O)N3CC(C)CC(C)C3)ccc2n1C (centres unmarked) [compound 463] in this work.
An IC50 of 5 to 20 µM was found for Cc1c(C(=O)N2CCCCC2)oc2ccc(S(=O)(=O)N3CCCCCC3)cc12 [compound 468] in this work.
An IC50 of 5 to 20 µM was found for Cc1c(C(=O)N2CCC(C)CC2)oc2ccc(S(=O)(=O)N3CCCCC3)cc12 [compound 279] in this work.
An IC50 of 5 to 20 µM was found for Cc1c(C(=O)N(C(C)C)C(C)C)oc2ccc(S(=O)(=O)N3CCCCCC3)cc12 [compound 159] in this work.
An IC50 of 5 to 20 µM was found for Cc1c(C(=O)N2CCN(C)CC2)oc2ccc(S(=O)(=O)N3CCC(C)CC3)cc12 [compound 385] in this work.
